Source: patent US5110976A, “Insecticidal composition comprising more than one active ingredient” (priority 1985, dated 1992)
Converted amounts (≈) assume the structure as drawn.

Assays:
Phaedon cochleariae = settings: mixture activity lower than the calculated value; cited from earlier work
Musca domestica = settings: mixture activity lower than the calculated value; cited from earlier work
[1] = tested on: Leptinotarsa decemlineata; test: Topical test on potato beetle (Table 6); type: in vivo, imagos; settings: 24 h
Experimental: The active ingredients are dissolved in 2-ethoxyethanol and […] of the solutions are applied onto the abdominal sterna of potato beetle (Leptinotarsa decemlineata) imagos. The treatments are carried out by using two parallels and 10 insects for each dose. […]

Acanthoscelides obtectus [2] = test: 5 EC formulations sprayed on glass plates (Table 21); type: in vivo, bean weevil (Acanthoscelides obtectus), imagos; settings: 5 EC formulation, 24 hours
Experimental: (§1) The 5 EC formulations prepared according to Example 42 are diluted 50x, 100x, 200x, 400x, 800x and 1600x with water and 0.5 ml doses are sprayed onto glass plates. After drying 10 L. decemlineata imagos are placed on each glass plate and the insects are covered with Petri-dishes. The tests are carried out by using 6 doses and 3 parallels for each dose. The killed insects are counted after 48 hours.
Glass plates are sprayed with 5 EC formulations prepared according to Example 42 in an analogous manner to Example 52. After drying 10 bean weevil (Acanthoscelides obtectus) imagos are placed on each plate and the insects are covered with Petri-dishes. The killed insects are counted after 24 hours. The test is carried out with 6 doses by using 3 parallels for each dose.

L. decemlineata [3] = test: 5 EC formulation sprayed on glass plates (Table 9); type: in vivo, Colorado beetle (L. decemlineata), imagos; settings: 48 hours
Experimental: (§2) From a 5 EC formulation according to Example 17 50-, 100-, 200-, 400-, 800- and 1600-fold diluted emulsions are prepared by diluting with water. 0.5 ml of the emulsions are sprayed onto glass plates whereupon after drying 10 Colorado beetles (L. decemlineata) imagos are placed on each glass plate and the insects are covered. The tests are carried out with 6 doses by carrying out 3 parallels for each dose. The killed insects are counted after 48 hours and the percental mortality rate is calculated.

Acanthoscelides obtectus [4] = test: 5 EC formulation, insecticidal effect on bean weevil (Table 10); type: in vivo, bean weevil (Acanthoscelides obtectus), imagos; settings: 24 hours
Experimental: as §2
The insecticidal effect is tested on been weevil (Acanthoscelides obtectus) imagos. The killed insects are counted after 24 hours and the percental mortality rate is calculated.

Colorado potato beetle [5] = test: Topical test on Colorado potato beetle (Table 14); type: in vivo, Colorado potato beetle (Leptinotersa decemlineata), imago
Experimental: In Table 14 the activity on Colorado potato beetle is shown.
The test materials are dissolved in 2-ethoxyethanol (Cellosolve). One 0.3 μl drop of the solution is applied to the abdominal sterna of the imago. The treatment is carried out by using 2 parallels and 10 insects for each dose. […]

Hyphantria cunea [6] = test: Topical test on fall webworm (Table 18); type: in vivo, fall wetworm (Hyphantria cunea), L7-L8 larvae
Experimental: The active ingredients are dissolved in 2-ethoxy-ethanol and the solutions are applied in the form of 0.2 μl droplets onto the back of fall wetworm (Hyphantria cunea) of L7 -L8 larvae stage. The treated worms are placed on strawberry leaves in Petri-dishes. The test is carried out by using […], 2 parallels and 10 insects for each dose. The killed worms are counted after 24 hours and the percental mortality rate is calculated.

L. decemlineata [7] = test: 5 EC formulations sprayed on glass plates (Table 20); type: in vivo, imagos; settings: 5 EC formulation, 48 hours
Experimental: as §1

Hyphantria cunea [8] = test: Topical test on fall webworm (Table 8); type: in vivo, L7-L8 larvae; settings: 24 h
Experimental: The active ingredients are dissolved in 2-ethoxyethanol and the solutions are applied in the form of 0.2 μl droplets onto the back of fall webworm (Hyphantria cunea) of L7 -L8 larvae stage. The treated worms are placed on strawberry leaves in Petri-dishes. The test is carried out by using 5 doses; 2 parallels and 10 insects for each dose.

Tetranychus urticae = test: Potter Tower spray on mite-infested leaves (Table 19); type: in vivo, mites (Tetranychus urticae); settings: mortality after 24 hours
Experimental: Leaves already infested with mites (Tetranychus urticae) were sprayed under Potter Tower. Mortality after 24 hours on the treated leaves was compared with the control.

Aphidinus matricariae = test: Residual contact test on adults (Table 25); type: in vivo, adult females
Experimental: Residual contact test on adults of Aphidinus matricariae. Adults of A. matricariae are exposed to residues of the active ingredients freshly applied on glass plates forming cages, then the survivors are counted.
Treatment: test product and control treated with water.
Replicates: at least 3. Plot size (net): 1 cage.
Parasites of known age (24 hours) are used. […]
10 females of A. matricariae are introduced into each cage and supplied with honey as food. The number of females surviving exposure is determined after 1, 5 and 24 hours, in independent runs. Total number of survivors is calculate for each cage.

Colorado potato beetle [9] = test: Plot field test on Colorado potato beetle (Table 24); type: in vivo, adults; settings: 10 g active ingredients/ha
Experimental: The treatments are performed on a 25 m^2 plot strongly infected with Colorado potato beetle. 10 plants per plot are specially marked on which the Colorado potato beetles were counted previously. (During assessment of the number of pests only adults of the second Summer generation are taken into consideration, because at the point of time of the test the ratio of larvae of stages L3 and L4 is negligible). Treatment is accomplished on 25 M^2 plots at a dose of 10 g of active ingredients/ha with aqueous suspensions of the formulations according to Example 37 and three parallels are used. The test is evaluated by counting the leave insects on the marked plants. The average values of three parallel tests are disclosed in Table 24.

Myzus persicae = test: 5 EC formulations on aphid-infected bean plants (Table 22); type: in vivo, green peach aphids (Myzus persicae)
Experimental: 15 bean plants infected with green peach aphids (Myzus persicae) at 6 days' age are cultivated in each pot. At 12 days' age the strongly and uniformly infected plants are selected and sprayed to run-off with emulsions freshly prepared from the formulation according to Example 42. Treatments are carried out with three doses (active ingredient 2.5, 5 and 10 ppm) and four parallels are used (one pot per parallel). The second, fourth and eighth day after treatment the aphids are swept down from the plants to a white paper with a fine brush and the live insects are counted.

A. matricariae [10] = test: Direct contact test on pupae (Table 26); type: in vivo
Experimental: Mature pupae of A. matricariae on paprika leaves in Petri-dishes are exposed to a direct spray of the active ingredients. Two or three days before emergence paprika leaves with parasitized pupae are used. The leaves are laid on moistened filter paper in a plastic Petri-dish.
Application of treatment: See Example 57.
The pieces of leaf are transferred after treatment to clean Petri-dish bottoms. The trays are stored in a climatic chamber at 20° C. temperature, 70% relative humidity and a light-dark cycle of 16-8 h. Surviving pupae hatch after 2-3 days. The numbers of hatched and dead pupae are counted.

A. matricariae [11] = test: Direct contact test of pupae (Table 5); type: in vivo
Experimental: Mature pupae of A. matricariae on paprika leaves in Petri dishes are exposed to a direct spray of the active ingredients.
Two or three days before emergence paprika leaves with parasitized pupae are used. The leaves are laid on filter paper in a plastic Petri dish The filter paper is moistened.
Application of treatment: See Example 23.
The pieces of leaf are transferred after treatment to clean Petri dish bottoms The trays are stored in a clinic chamber at 20° C. temperature, 70% relative humidity and a light-dark cycle of […]. Surviving pupae hatch after 2-3 days. The numbers of hatched and dead pupae are counted.

CC1(C)[C@H](C=C(Cl)Cl)[C@H]1C(=O)OC(C#N)c1cccc(Oc2ccccc2)c1 (mixture of isomers) [mixture of both tested isomers]
rate of antagonism (Phaedon cochleariae): 1.46 | rate of antagonism (Musca domestica): 1.42

CC1(C)C(C=C(Cl)Cl)C1C(=O)OC(C#N)c1cccc(Oc2ccccc2)c1 (stereo not drawn) [cypermethrin]
mortality at 0.05 µg/insect ([1]; 0.05 μg/insect): 0% | mortality at 0.1 µg/insect ([1]; 0.10 μg/insect): 20% | mortality at 0.2 µg/insect ([1]; 0.20 μg/insect): 45% | mortality at 0.4 µg/insect ([1]; 0.40 μg/insect): 75% | Mortality % (Acanthoscelides obtectus [2]; dilution 50x, 1440 min): 60% | Mortality % (Acanthoscelides obtectus [2]; dilution 100x, 1440 min): 45% | Mortality % (Acanthoscelides obtectus [2]; dilution 200x, 1440 min): 20% | Mortality % (Acanthoscelides obtectus [2]; dilution 400x, 1440 min): 10% | Mortality % (Acanthoscelides obtectus [2]; dilution 800x, 1440 min): 3% | Mortality % (Acanthoscelides obtectus [2]; dilution 1600x, 1440 min): 0% | Mortality % (L. decemlineata [3]; dilution 50x): 83% | Mortality % (L. decemlineata [3]; dilution 100x): 67% | Mortality % (L. decemlineata [3]; dilution 200x): 50% | Mortality % (L. decemlineata [3]; dilution 400x): 33% | Mortality % (L. decemlineata [3]; dilution 800x): 17% | Mortality % (L. decemlineata [3]; dilution 1600x): 0% | Mortality % (Acanthoscelides obtectus [4]; dilution 50x): 60% | Mortality % (Acanthoscelides obtectus [4]; dilution 100x): 43% | Mortality % (Acanthoscelides obtectus [4]; dilution 200x): 20% | Mortality % (Acanthoscelides obtectus [4]; dilution 400x): 10% | Mortality % (Acanthoscelides obtectus [4]; dilution 800x): 3% | Mortality % (Acanthoscelides obtectus [4]; dilution 1600x): 0% | 24 hours' mortality % (Colorado potato beetle [5]; 0.05 μg/beetle): 0% | 24 hours' mortality % (Colorado potato beetle [5]; 0.10 μg/beetle): 20% | 24 hours' mortality % (Colorado potato beetle [5]; 0.20 μg/beetle): 45% | 24 hours' mortality % (Colorado potato beetle [5]; 0.40 μg/beetle): 75% | 24 hours' mortality (Hyphantria cunea [6]; 0.023 (μg/disc), 1440 min): 0% | 24 hours' mortality (Hyphantria cunea [6]; 0.047 (μg/disc), 1440 min): 10% | 24 hours' mortality (Hyphantria cunea [6]; 0.094 (μg/disc), 1440 min): 25% | 24 hours' mortality (Hyphantria cunea [6]; 0.188 (μg/disc), 1440 min): 50% | 24 hours' mortality (Hyphantria cunea [6]; 0.375 (μg/disc)): 75% | Mortality % (L. decemlineata [7]; dilution 50x, 2880 min): 83% | Mortality % (L. decemlineata [7]; dilution 100x, 2880 min): 67% | Mortality % (L. decemlineata [7]; dilution 200x, 2880 min): 50% | Mortality % (L. decemlineata [7]; dilution 400x, 2880 min): 33% | Mortality % (L. decemlineata [7]; dilution 800x, 2880 min): 17% | Mortality % (L. decemlineata [7]; dilution 1600x): 0% | mortality at 0.023 µg/larva (Hyphantria cunea [8]; 0.023 μg/larvae): 0% | mortality at 0.047 µg/larva (Hyphantria cunea [8]; 0.047 μg/larvae): 0% | mortality at 0.094 µg/larva (Hyphantria cunea [8]; 0.094 μg/larvae): 25% | mortality at 0.188 µg/larva (Hyphantria cunea [8]; 0.188 μg/larvae): 50% | mortality at 0.375 µg/larva (Hyphantria cunea [8]; 0.375 μg/larvae): 75% | approx. LD50 (Tetranychus urticae; 1440 min): ~0.120 ppm

CC1(C)[C@H](C(=O)O[C@H](C#N)c2cccc(Oc3ccccc3)c2)[C@@H]1C=C(Br)Br [deltamethrin]
Mortality % (Aphidinus matricariae; 1 ppm, 1h): 20% | Mortality % (Aphidinus matricariae; 1 ppm, 5h): 100% | Mortality % (Aphidinus matricariae; 1 ppm, 24h): 85% | Mortality % (Aphidinus matricariae; 5 ppm, 1h): 100% | Mortality % (Acanthoscelides obtectus [2]; dilution 50x): 75% | Mortality % (Acanthoscelides obtectus [2]; dilution 100x): 57% | Mortality % (Acanthoscelides obtectus [2]; dilution 200x): 37% | Mortality % (Acanthoscelides obtectus [2]; dilution 400x): 20% | Mortality % (Acanthoscelides obtectus [2]; dilution 800x): 13% | Mortality % (Acanthoscelides obtectus [2]; dilution 1600x): 7% | Average number of live insects/10 plants (Colorado potato beetle [9]; 0 days after treatment (control 211)): 181 | Average number of live insects/10 plants (Colorado potato beetle [9]; 1 day after treatment (control 206)): 7 | Average number of live insects/10 plants (Colorado potato beetle [9]; 3 days after treatment (control 179)): 10 | Average number of live insects/10 plants (Colorado potato beetle [9]; 9 days after treatment (control 183)): 19 | mortality at 0.05 µg/beetle (Colorado potato beetle [5]; Leptinotarsa decemlineata, topical, read-out: 24 hours' mortality %, 0.05 μg/beetle): 45% | mortality at 0.1 µg/beetle (Colorado potato beetle [5]; Leptinotarsa decemlineata, topical, read-out: 24 hours' mortality %, 0.10 μg/beetle): 60% | mortality at 0.2 µg/beetle (Colorado potato beetle [5]; Leptinotarsa decemlineata, topical, read-out: 24 hours' mortality %, 0.20 μg/beetle): 75% | mortality at 0.4 µg/beetle (Colorado potato beetle [5]; Leptinotarsa decemlineata, topical, read-out: 24 hours' mortality %, 0.40 μg/beetle): 85% | Average number of aphids per pot (Myzus persicae; 2.5 ppm, 2 days after treatment (control 1850)): 26 | Average number of aphids per pot (Myzus persicae; 2.5 ppm, 4 days after treatment (control 2780)): 47 | Average number of aphids per pot (Myzus persicae; 2.5 ppm, 8 days after treatment (control 4120)): 137 | Average number of aphids per pot (Myzus persicae; 5.0 ppm, 2 days after treatment (control 1850)): 13 | Average number of aphids per pot (Myzus persicae; 5.0 ppm, 4 days after treatment (control 2780)): 19 | Average number of aphids per pot (Myzus persicae; 5.0 ppm, 8 days after treatment (control 4120)): 29 | Average number of aphids per pot (Myzus persicae; 10.0 ppm, 2 days after treatment (control 1850)): 6 | Average number of aphids per pot (Myzus persicae; 10.0 ppm, 4 days after treatment (control 2780)): 11 | Average number of aphids per pot (Myzus persicae; 10.0 ppm, 8 days after treatment (control 4120)): 23 | Mortality % (A. matricariae [10]; 1 ppm): 0% | Mortality % (A. matricariae [10]; 5 ppm): 0% | Mortality % (A. matricariae [10]; 10 ppm): 33.0% | Mortality % (A. matricariae [10]; 33 ppm): 75.0% | Mortality % (L. decemlineata [7]; dilution 50x): 100% | Mortality % (L. decemlineata [7]; dilution 100x): 83% | Mortality % (L. decemlineata [7]; dilution 200x): 67% | Mortality % (L. decemlineata [7]; dilution 400x): 53% | Mortality % (L. decemlineata [7]; dilution 800x): 35% | Mortality % (L. decemlineata [7]; dilution 1600x): 7% | Mortality % (A. matricariae [11]; 1 ppm): 0% | Mortality % (A. matricariae [11]; 5 ppm): 0% | Mortality % (A. matricariae [11]; 10 ppm): 33.0% | Mortality % (A. matricariae [11]; 30 ppm): 75.0% | LC50 (Tetranychus urticae; Tetranychus urticae, 24 h, read-out: approx. LD50): ~0.185 µg/mL (≈ 0.366 µM)
